Source: patent publication US9072759B2 (priority 2008, dated 2015)
In brackets after ≈: the same amount, converted by molar mass. Like-named read-outs stand apart in the source and are kept apart here.

Columns and labels:
[1] = test system: B. anthracis; conditions: approved or proposed for post-exposure anthrax indications; cited from earlier work
[2] = test system: L. pneumophila strain ATCC 33153; experiment: microbe, parasite or virus in culture; format: cell-based; conditions: Legionella pneumophila
[3] = in vivo
[4] = test system: B. anthracis; experiment: microbe, parasite or virus in culture; format: cell-based
[5] = test system: Y. pestis; experiment: microbe, parasite or virus in culture; format: cell-based
[6] = test system: F. tularensis; experiment: microbe, parasite or virus in culture; format: cell-based
[7] = test system: B. mallei; experiment: microbe, parasite or virus in culture; format: cell-based
[8] = test system: B. pseudomallei; experiment: microbe, parasite or virus in culture; format: cell-based
[9] = test system: L. monocytogenes strain EGD; experiment: microbe, parasite or virus in culture; format: cell-based; conditions: Listeria monocytogenes
[10] = in vivo; conditions: rat
[11] = in vivo; conditions: monkey
[12] = in vivo; conditions: rodents and non human primates
[13] = clinical; conditions: in vivo
[14] = read-out: MIC, L. monocytogenes
[15] = ATCC33153, pH 6.5, read-out: MIC, L. pneumophila, pH-adjusted broth
[16] = ATCC33153, pH 7.4, read-out: MIC, L. pneumophila, pH-adjusted broth
[17] = ATCC33153, read-out: MIC, L. pneumophila

CC[C@H]1OC(=O)[C@H](C)C(=O)[C@H](C)[C@@H](O[C@@H]2O[C@H](C)C[C@H](N(C)C)[C@H]2O)[C@](C)(OC/C=C/c2cnc3ccccc3c2)C[C@@H](C)C(=O)[C@H](C)[C@H]2NC(=O)O[C@@]21C [cethromycin]
MIC90 against B. anthracis, comparator antibiotics [1]: 0.063 µg/mL (≈ 0.0823 µM)

CC[C@H]1OC(=O)[C@H](C)C(=O)[C@H](C)[C@@H](O[C@@H]2O[C@H](C)C[C@H](N(C)C)[C@H]2O)[C@](C)(OC)C[C@@H](C)C(=O)[C@H](C)[C@H]2N(CCCCn3cnc(-c4cccnc4)c3)C(=O)O[C@]12C [TEL, Telithromycin]
MIC ([2]; ATCC33153): 0.007 µg/mL (≈ 0.00862 µM)
bioload when the time after the last dose was extended [3]: bioload increases

CC[C@H]1OC(=O)[C@@](C)(F)C(=O)[C@H](C)[C@@H](OC2OC(C)CC(N(C)C)C2O)[C@@](C)(OC)C[C@@H](C)C(=O)[C@H](C)[C@H]2N(CCCCn3cc(-c4cccc(N)c4)nn3)C(=O)O[C@]12C (some centres unmarked) [CEM-101, 11-N-4-(3-aminophenyl)-[1,2,3]triazol-1-yl]-butyl}-5-desosaminyl-3-oxo-2-fluoro-erythronolide A,-11,12-cyclic carbamate]
MIC Range ([4]; B. anthracis, 30 strains): <0.008 to 0.015 µg/mL
MIC50 ([4]; Bacillus anthracis): < 0.008 µg/mL
MIC90 ([4]; Bacillus anthracis): < 0.008 µg/mL
MIC Range ([5]; Y. pestis, 30 strains): 0.25 to 2 µg/mL
MIC50 ([5]; Yersinia pestis): 1 µg/mL (≈ 1.18 µM)
MIC90 ([5]; Yersinia pestis): 2 µg/mL (≈ 2.37 µM)
MIC Range ([6]; F. tularensis, 30 strains): <0.08 to 4 µg/mL
MIC50 ([6]; Francisella tularensis): 0.03 µg/mL (≈ 0.0355 µM)
MIC90 ([6]; Francisella tularensis): 2 µg/mL (≈ 2.37 µM)
MIC Range ([7]; B. mallei, 30 strains): 0.25 to 2 µg/mL
MIC50 ([7]; Burkholderia mallei): 1 µg/mL (≈ 1.18 µM)
MIC90 ([7]; Burkholderia mallei): 1 µg/mL (≈ 1.18 µM)
MIC Range ([8]; B. pseudomallei, 30 strains): 16 µg/mL (≈ 18.9 µM)
MIC50 ([8]; Burkholderia pseudomallei): 16 µg/mL (≈ 18.9 µM)
MIC90 ([8]; Burkholderia pseudomallei): 16 µg/mL (≈ 18.9 µM)
MIC [9]: 0.004 µg/mL (≈ 0.00473 µM)
MIC ([9]; pH 7.4, read-out: MIC, L. monocytogenes (EDG), pH-adjusted broth): 0.0039 µg/mL (≈ 0.00462 µM)
MIC [9, 14]: 0.004 µg/mL (≈ 0.00473 µM)
MIC ([2]; ATCC33153): 0.004 µg/mL (≈ 0.00473 µM)
MIC [2, 15]: 0.01 µg/mL (≈ 0.0118 µM)
MIC [2, 16]: 0.005 µg/mL (≈ 0.00592 µM)
MIC [2, 17]: 0.004 µg/mL (≈ 0.00473 µM)
Kp [10]: 5
Kp [11]: 54
Kp [12]: 17 to 100
AUC [13]: 40 to 28600 ng·h/mL
Cmax [13]: 22 to 1960 ng/mL
Tmax [13]: 1.5 to 6 h
half-life [13]: 2.2 to 7.9 h

CC[C@H]1OC(=O)[C@H](C)[C@@H](O[C@H]2C[C@@](C)(OC)[C@@H](O)[C@H](C)O2)[C@H](C)[C@@H](O[C@@H]2O[C@H](C)C[C@H](N(C)C)[C@H]2O)[C@](C)(OC)C[C@@H](C)C(=O)[C@H](C)[C@@H](O)[C@]1(C)O [CLR, Clarithromycin]
MIC ([2]; ATCC33153): 0.007 µg/mL (≈ 0.00936 µM)
bioload when the time after the last dose was extended [3]: bioload increases

O=C(O)c1cn(C2CC2)c2cc(N3CCNCC3)c(F)cc2c1=O [ciprofloxacin]
MIC90 against B. anthracis, comparator antibiotics [1]: 0.031 µg/mL (≈ 0.0936 µM)

CC[C@H]1OC(=O)[C@H](C)[C@@H](O[C@H]2C[C@@](C)(OC)[C@@H](O)[C@H](C)O2)[C@H](C)[C@@H](O[C@@H]2O[C@H](C)C[C@H](N(C)C)[C@H]2O)[C@](C)(O)C[C@@H](C)CN(C)[C@H](C)[C@@H](O)[C@]1(C)O [AZI, Azithromycin]
MIC [9]: 1 µg/mL (≈ 1.34 µM)
MIC [9, 14]: 1 µg/mL (≈ 1.34 µM)
MIC ([2]; ATCC33153): 0.016 µg/mL (≈ 0.0214 µM)
MIC [2, 15]: 0.25 µg/mL (≈ 0.334 µM)
MIC [2, 16]: ~0.01 µg/mL (≈ 0.0134 µM)
MIC [2, 17]: 0.016 µg/mL (≈ 0.0214 µM)
